# Assay results: patent publication US9801901B2, “Alginate oligomers for use in overcoming multidrug resistance in bacteria” (priority 2009, dated 2017)
# Where two headings read alike, the source gives them in different places. Marks after values point to notes of the source that are not given here.
# Tests used:
# [1] = system: V12 5725 (Wales) Klebsiella pneumoniae; assay: MIC assay, CAMHB with alginate oligomer, no visible growth; assay type: cell-based; details: Table 5, V12 MDR Kleb pneu
# [2] = system: Pseudomonas aeruginosa ATCC 39324, mucoid type strain (R79); assay: as above; assay type: cell-based; details: Pseudomonas aeruginosa, ATCC39324, Table 1, R79, read-out: MIC
# [3] = system: Pseudomonas aeruginosa MDR 301 from Poland (V2); assay: as above; assay type: cell-based; details: Pseudomonas aeruginosa, Table 1, V2 MDR 301 PA, read-out: MIC
# [4] = system: V9 (Egypt) Acinetobacter baumannii; assay: as above; assay type: cell-based; details: Table 5, V9 MDR Acin. baum
# [5] = system: PA01 Pseudomonas aeruginosa ATCC 15692; assay: MIC assay, two-fold antibiotic dilutions in CAMHB with alginate oligomer, no visible growth; assay type: cell-based; details: Pseudomonas aeruginosa, ATCC15692, Table 1, PA01, read-out: MIC
# [6] = system: Pseudomonas aeruginosa MDR R22 from China (V1); assay: MIC assay, CAMHB with alginate oligomer, no visible growth; assay type: cell-based; details: for MIC: Pseudomonas aeruginosa, Table 1, V1 MDR R22 PA, read-out: MIC
# Excerpt: The study described in Example 1 was repeated with the following strains of bacteria and antibiotics as detailed in Tables 4, 5 and 6.
# [7] = system: Pseudomonas aeruginosa CFA 24-1, clinical mucoid strain (R80); assay: as above; assay type: cell-based; details: Pseudomonas aeruginosa, Table 1, R80, read-out: MIC
# [8] = system: Acinetobacter baumannii (MDR ACB, Libya, V4); assay: MIC-assay, Mueller-Hinton broth with G-block alginate, 384-well, OD600
# [9] = system: strains of E. coli displaying MDR phenotypes; assay: MIC-assay, Mueller-Hinton broth with G-block alginate, 384-well, OD600 (Table 11); assay type: cell-based; details: Escherichia coli, Escherichia coli (5702, Wales, V11) MDR, read-out: MIC
# Excerpt: Minimum inhibitory concentration (MICs) of different antibiotics for strains of E. coli and Providencia stuartii displaying MDR phenotypes in the presence of varying concentrations of OligoCF-5/20 (0-10%). (MIC values are expressed in μg ml^−1).
# [10] = system: Acinetobacter lwoffii (6056, V22); assay: MIC-assay, Mueller-Hinton broth with G-block alginate, 384-well, OD600
# [11] = system: Burkholderia cepacia (LMG18941, ATCC-BAA-246); assay: as above
# [12] = system: Staphylococcus aureus (MRSA) U50; assay: MIC-assay, Mueller-Hinton broth with G-block alginate, 384-well, OD600 (Table 12); assay type: cell-based; details: MRSA 1040s, U50 MDR, read-out: MIC
# Excerpt: (§1) Minimum inhibitory concentration (MICs) of different antibiotics for strains of Streptococcus oralis and Staphylococcus aureus (MRSA) displaying MDR phenotypes in the presence of varying concentrations of OligoCF-5/20 (0-10%). (MIC values are expressed in μg ml^−1).
# Streptococcus oralis = assay: as above; assay type: cell-based; details: Streptococcus oralis (5610, V17) MDR
# Excerpt: as §1
# [13] = system: Acinetobacter lwoffii (Egypt, V10); assay: MIC-assay, Mueller-Hinton broth with G-block alginate, 384-well, OD600
# [14] = Klebsiella pneumoniae, OligoCF-5/20 0G, read-out: MIC
# [15] = Table 9, G-block (OligoCF-5/20) 0%
# [16] = Table 9, G-block (OligoCF-5/20) 2%
# [17] = Table 9, G-block (OligoCF-5/20) 6%
# [18] = Table 9, G-block (OligoCF-5/20) 10%
smiles,measurement,setting,value
C[C@@H](O)[C@H]1C(=O)N2C(C(=O)O)=C(S[C@@H]3CN[C@H](C(=O)N(C)C)C3)[C@H](C)[C@H]12 [Meropenem],MIC,[1]; [14],< 0.25 µg/mL
same,MIC,[1]; OligoCF-5/20 +2% G,<0.25 µg/mL
same,MIC,[1]; OligoCF-5/20 +6% G,<0.25 µg/mL
same,MIC,[1]; OligoCF-5/20 +10% G,<0.25 µg/mL
same,MIC,[2]; OligoCF-5/20 0G,< 1 µg/mL
same,MIC,[2]; OligoCF-5/20 +2% G,< 1 µg/mL
same,MIC,[2]; OligoCF-5/20 +6% G,< 1 µg/mL
same,MIC,[2]; OligoCF-5/20 +10% G,< 1 µg/mL
same,MIC,[3]; OligoCF-5/20 0G,64 µg/mL
same,MIC,[3]; OligoCF-5/20 +2% G,64 µg/mL
same,MIC,"[4]; Acinetobacter baumannii, OligoCF-5/20 0G, read-out: MIC",16 µg/mL
same,MIC,[4]; OligoCF-5/20 +2% G,8^† μg/ml
same,MIC,[4]; OligoCF-5/20 +6% G,8^† μg/ml
same,MIC,[4]; OligoCF-5/20 +10% G,4^† μg/ml
same,MIC,[5]; OligoCF-5/20 0G,2 µg/mL
same,MIC,[5]; OligoCF-5/20 +2% G,2 µg/mL
same,MIC,[5]; OligoCF-5/20 +6% G,< 1 µg/mL
same,MIC,[5]; OligoCF-5/20 +10% G,< 1 µg/mL
same,MIC,[6]; OligoCF-5/20 0G,32 µg/mL
same,MIC,[6]; OligoCF-5/20 +2% G,32 µg/mL
same,MIC,[6]; OligoCF-5/20 +6% G,16 µg/mL
same,MIC,[6]; OligoCF-5/20 +10% G,4 µg/mL
same,MIC,[7]; OligoCF-5/20 0G,< 1 µg/mL
same,MIC,[7]; OligoCF-5/20 +2% G,< 1 µg/mL
same,MIC,[7]; OligoCF-5/20 +6% G,< 1 µg/mL
same,MIC,[7]; OligoCF-5/20 +10% G,< 1 µg/mL
O=C(O)c1cn(C2CC2)c2cc(N3CCNCC3)c(F)cc2c1=O [Ciprofloxacin],MIC,[8]; [15],4 µg/mL
same,MIC,[8]; [16],1 µg/mL
same,MIC,[8]; [17],1 µg/mL
same,MIC,[8]; [18],0.5 µg/mL
same,MIC,[9]; G-block (OligoCF-5/20) 0%,> 8 µg/mL
same,MIC,[9]; G-block (OligoCF-5/20) 2%,> 8 µg/mL
same,MIC,[9]; G-block (OligoCF-5/20) 6%,> 8 µg/mL
same,MIC,[9]; G-block (OligoCF-5/20) 10%,> 8 µg/mL
same,MIC,[1]; [14],64 µg/mL
same,MIC,[1]; OligoCF-5/20 +2% G,64 µg/mL
same,MIC,[1]; OligoCF-5/20 +6% G,256^‡ μg/ml
same,MIC,[1]; OligoCF-5/20 +10% G,256^‡ μg/ml
same,MIC,[10]; [15],< 2 µg/mL
same,MIC,[10]; [16],< 2 µg/mL
same,MIC,[10]; [17],< 2 µg/mL
same,MIC,[10]; [18],< 2 µg/mL
same,MIC,"[11]; ATCCBAA246|LMG18941, Table 8, G-block (OligoCF-5/20) 0%",> 8 µg/mL
same,MIC,"[11]; ATCCBAA246|LMG18941, Table 8, G-block (OligoCF-5/20) 2%",> 8 µg/mL
same,MIC,"[11]; ATCCBAA246|LMG18941, Table 8, G-block (OligoCF-5/20) 6%",> 8 µg/mL
same,MIC,"[11]; ATCCBAA246|LMG18941, Table 8, G-block (OligoCF-5/20) 10%",> 8 µg/mL
same,MIC,[2]; OligoCF-5/20 +2% G,0.0625 µg/mL
same,MIC,[2]; OligoCF-5/20 +6% G,0.0312 µg/mL
same,MIC,[2]; OligoCF-5/20 +10% G,0.0312 µg/mL
same,MIC,[3]; OligoCF-5/20 0G,16 µg/mL
same,MIC,[3]; OligoCF-5/20 +2% G,16 µg/mL
same,MIC,[3]; OligoCF-5/20 +6% G,8 µg/mL
same,MIC,[3]; OligoCF-5/20 +10% G,8 µg/mL
same,MIC,[4]; OligoCF-5/20 0G,-64^† μg/ml
same,MIC,[4]; OligoCF-5/20 +2% G,32^† μg/ml
same,MIC,[4]; OligoCF-5/20 +6% G,32^† μg/ml
same,MIC,[4]; OligoCF-5/20 +10% G,32^† μg/ml
same,MIC,[12]; G-block (OligoCF-5/20) 0%,32 µg/mL
same,MIC,[12]; G-block (OligoCF-5/20) 2%,32 µg/mL
same,MIC,[12]; G-block (OligoCF-5/20) 6%,> 1020 µg/mL
same,MIC,[12]; G-block (OligoCF-5/20) 10%,> 1020 µg/mL
same,MIC,"Streptococcus oralis; G-block (OligoCF-5/20) 0%, read-out: MIC",32 µg/mL
same,MIC,Streptococcus oralis; G-block (OligoCF-5/20) 2%,< 0.0625 µg/mL
same,MIC,"Streptococcus oralis; G-block (OligoCF-5/20) 6%, read-out: MIC",2 µg/mL
same,MIC,"Streptococcus oralis; G-block (OligoCF-5/20) 10%, read-out: MIC",2 µg/mL
same,MIC,[5]; OligoCF-5/20 +2% G,0.0625 µg/mL
same,MIC,[5]; OligoCF-5/20 +6% G,0.0625 µg/mL
same,MIC,[5]; OligoCF-5/20 +10% G,0.0312 µg/mL
same,MIC,[6]; OligoCF-5/20 0G,16 µg/mL
same,MIC,[6]; OligoCF-5/20 +2% G,16 µg/mL
same,MIC,[6]; OligoCF-5/20 +6% G,8 µg/mL
same,MIC,[6]; OligoCF-5/20 +10% G,4 µg/mL
same,change of MIC in combination with azithromycin by alginate oligomer,"[6]; Table 3, MDR R22 PA strain",reduced
same,MIC,[13]; [15],0.063 µg/mL
same,MIC,[13]; [16],0.031 µg/mL
same,MIC,[13]; [17],0.031 µg/mL
same,MIC,[13]; [18],0.031 µg/mL
